Measured values: ChEMBL document CHEMBL1158000, “Geniculol, a new biologically active diterpene from the endophytic fungus geniculosporium sp.1” (1999)

Columns and labels:
[1] = tested on: [Chlorella] fusca; assay: Antialgal activity against Chlorella fusca at 50 ug by agar diffusion test; assay type: functional; conditions: Scenedesmus fuscus; read-out: IZ
[2] = tested on: [Chlorella] fusca; assay: Reduction of photosynthetic activity in green alga Chlorella fusca assessed as production of oxygen per hour at 0.2 mg/mL; assay type: functional, Scenedesmus fuscus; set-up: scale not given: the % may be the effect or the level left

| SMILES | zone of inhibition at 50 µg/disc [1] [mm] | Activity [2] [%] |
| --- | --- | --- |
| C[C@H]1C/C=C/[C@H]2[C@@H]3O[C@]3(C)[C@@H](C)[C@H]3[C@H](Cc4ccccc4)NC(=O)[C@]32OC(=O)/C=C/[C@@H](O)CCC1 [CYTOCHALASIN F] | 1 | 94.1 |
| C[C@]12CCC(=O)O[C@H]1C1=C[C@H]3OC(=O)[C@@]4(C)CCC[C@@](C)([C@@H]34)[C@]1(O)[C@H]2O [GENICULOL] | 2 |  |
